Reference: ChEMBL document CHEMBL4043296 (J Med Chem, 2018)

Tests used:
[1] = target: T1, D(4) dopamine receptor (Homo sapiens, UniProt P21917); assay: Antagonist activity at human SP/Myc epitope-tagged dopamine D4 receptor expressed in HEK293T cells assessed as inhibition of dopamine-induced RLuc8-fused Galphai1 activation preincubated for 15 mins followed by dopamine induction measured after 2 mins by BRET assay; assay type: cell-based, HEK-293T
T1 sequence (P21917 whole entry): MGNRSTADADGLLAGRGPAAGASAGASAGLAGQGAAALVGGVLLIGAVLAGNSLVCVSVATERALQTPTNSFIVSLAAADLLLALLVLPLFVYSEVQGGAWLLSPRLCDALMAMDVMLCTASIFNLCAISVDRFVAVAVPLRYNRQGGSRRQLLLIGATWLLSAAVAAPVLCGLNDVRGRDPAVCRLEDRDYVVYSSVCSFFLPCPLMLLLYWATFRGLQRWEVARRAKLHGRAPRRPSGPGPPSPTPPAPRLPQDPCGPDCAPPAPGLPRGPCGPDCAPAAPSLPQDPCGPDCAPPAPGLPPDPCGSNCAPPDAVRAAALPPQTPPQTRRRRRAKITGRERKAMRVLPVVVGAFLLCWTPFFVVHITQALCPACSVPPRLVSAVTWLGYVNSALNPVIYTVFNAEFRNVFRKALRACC

[2] = target: T1, D(4) dopamine receptor; assay: Antagonist activity at human SP/Myc epitope-tagged dopamine D4 receptor expressed in HEK293T cells assessed as inhibition of dopamine-induced mVenus-fused beta-arrestin2 recruitment preincubated for 15 mins followed by dopamine induction measured after 2 mins by BRET assay; assay type: cell-based, HEK-293T
[3] = organism: Homo sapiens; assay: Selectivity ratio of Ki for human dopamine D2 receptor to Ki for human dopamine D4 receptor
[4] = target: T1, D(4) dopamine receptor; assay: Displacement of [3H]N-methylspiperone from human dopamine D4 receptor expressed in HEK293 cell membranes after 1 hr by scintillation counting method
[5] = target: D(2) dopamine receptor (Homo sapiens, UniProt P14416); assay: Displacement of [3H]N-methylspiperone from human dopamine D2 receptor expressed in HEK293 cell membranes after 1 hr by scintillation counting method
[6] = target: D(3) dopamine receptor (Homo sapiens, UniProt P35462); assay: Displacement of [3H]N-methylspiperone from human dopamine D3 receptor expressed in HEK293 cell membranes after 1 hr by scintillation counting method
[7] = target: T2, Muscarinic acetylcholine receptor M5 (Homo sapiens, UniProt P08912); assay: Displacement of [3H]NMS from human muscarinic M5 receptor expressed in CHO cell membranes after 2 hrs by liquid scintillation counting method
T2 sequence (P08912 whole entry): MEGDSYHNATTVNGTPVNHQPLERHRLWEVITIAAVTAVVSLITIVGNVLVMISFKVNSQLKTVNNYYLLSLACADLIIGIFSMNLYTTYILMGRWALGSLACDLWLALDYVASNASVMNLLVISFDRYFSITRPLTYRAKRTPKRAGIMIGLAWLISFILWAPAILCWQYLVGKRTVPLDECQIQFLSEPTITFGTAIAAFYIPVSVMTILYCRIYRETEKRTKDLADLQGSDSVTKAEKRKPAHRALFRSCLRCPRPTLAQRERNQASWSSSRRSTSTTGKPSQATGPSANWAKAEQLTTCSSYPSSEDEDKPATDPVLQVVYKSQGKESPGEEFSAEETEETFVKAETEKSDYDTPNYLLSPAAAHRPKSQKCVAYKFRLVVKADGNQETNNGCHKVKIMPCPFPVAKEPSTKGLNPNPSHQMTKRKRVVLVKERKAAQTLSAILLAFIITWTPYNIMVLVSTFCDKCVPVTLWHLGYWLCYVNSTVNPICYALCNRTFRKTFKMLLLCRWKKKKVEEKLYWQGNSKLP

[8] = target: Muscarinic acetylcholine receptor M3 (Homo sapiens, UniProt P20309); assay: Displacement of [3H]NMS from human muscarinic M3 receptor expressed in CHO cell membranes after 2 hrs by liquid scintillation counting method
[9] = target: T3, Muscarinic acetylcholine receptor M2 (Homo sapiens, UniProt P08172); assay: Displacement of [3H]NMS from human muscarinic M2 receptor expressed in CHO cell membranes after 2 hrs by liquid scintillation counting method
T3 sequence (P08172 whole entry): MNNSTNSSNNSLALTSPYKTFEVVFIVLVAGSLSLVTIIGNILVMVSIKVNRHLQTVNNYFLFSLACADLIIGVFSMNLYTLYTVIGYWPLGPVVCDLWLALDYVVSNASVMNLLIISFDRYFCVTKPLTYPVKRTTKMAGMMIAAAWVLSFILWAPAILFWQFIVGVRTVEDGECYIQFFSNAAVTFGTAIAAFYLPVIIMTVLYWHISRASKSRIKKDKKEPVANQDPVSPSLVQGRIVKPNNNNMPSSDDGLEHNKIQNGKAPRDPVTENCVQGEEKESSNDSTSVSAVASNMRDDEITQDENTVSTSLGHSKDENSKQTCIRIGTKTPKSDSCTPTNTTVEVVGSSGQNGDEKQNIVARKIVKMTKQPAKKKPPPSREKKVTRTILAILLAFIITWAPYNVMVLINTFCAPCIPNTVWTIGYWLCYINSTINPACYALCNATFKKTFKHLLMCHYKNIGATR

[10] = target: T4, Muscarinic acetylcholine receptor M1 (Homo sapiens, UniProt P11229); assay: Displacement of [3H]NMS from human muscarinic M1 receptor expressed in CHO cell membranes after 2 hrs by liquid scintillation counting method
T4 sequence (P11229 whole entry): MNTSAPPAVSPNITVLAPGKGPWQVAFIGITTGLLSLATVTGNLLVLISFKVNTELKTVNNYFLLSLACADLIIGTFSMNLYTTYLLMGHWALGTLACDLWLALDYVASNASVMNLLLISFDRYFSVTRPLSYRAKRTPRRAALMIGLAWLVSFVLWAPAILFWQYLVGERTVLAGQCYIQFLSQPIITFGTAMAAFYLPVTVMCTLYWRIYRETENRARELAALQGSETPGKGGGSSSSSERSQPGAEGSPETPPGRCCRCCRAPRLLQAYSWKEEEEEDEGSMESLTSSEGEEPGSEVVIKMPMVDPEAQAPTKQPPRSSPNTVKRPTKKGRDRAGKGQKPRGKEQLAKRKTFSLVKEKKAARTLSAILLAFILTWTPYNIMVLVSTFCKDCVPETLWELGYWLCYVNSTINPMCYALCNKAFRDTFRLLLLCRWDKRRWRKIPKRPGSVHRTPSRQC

[11] = target: T5, Muscarinic acetylcholine receptor M4 (Homo sapiens, UniProt P08173); assay: Displacement of [3H]NMS from human muscarinic M4 receptor expressed in CHO cell membranes after 2 hrs by liquid scintillation counting method
T5 sequence (P08173 whole entry): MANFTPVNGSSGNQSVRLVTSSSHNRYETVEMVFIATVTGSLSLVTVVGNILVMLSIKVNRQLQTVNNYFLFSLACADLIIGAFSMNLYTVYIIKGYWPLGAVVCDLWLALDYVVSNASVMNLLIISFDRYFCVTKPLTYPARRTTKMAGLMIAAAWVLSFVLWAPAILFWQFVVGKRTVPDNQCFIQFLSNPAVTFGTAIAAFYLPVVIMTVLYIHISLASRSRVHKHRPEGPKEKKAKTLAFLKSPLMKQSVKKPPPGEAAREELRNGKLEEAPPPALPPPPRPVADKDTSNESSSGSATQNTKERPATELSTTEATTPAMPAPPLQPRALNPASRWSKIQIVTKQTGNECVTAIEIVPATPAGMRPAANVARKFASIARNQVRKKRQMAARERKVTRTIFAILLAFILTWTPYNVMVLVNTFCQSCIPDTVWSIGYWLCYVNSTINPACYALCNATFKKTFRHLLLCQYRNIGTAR

Sequence of D(2) dopamine receptor (P14416 whole entry): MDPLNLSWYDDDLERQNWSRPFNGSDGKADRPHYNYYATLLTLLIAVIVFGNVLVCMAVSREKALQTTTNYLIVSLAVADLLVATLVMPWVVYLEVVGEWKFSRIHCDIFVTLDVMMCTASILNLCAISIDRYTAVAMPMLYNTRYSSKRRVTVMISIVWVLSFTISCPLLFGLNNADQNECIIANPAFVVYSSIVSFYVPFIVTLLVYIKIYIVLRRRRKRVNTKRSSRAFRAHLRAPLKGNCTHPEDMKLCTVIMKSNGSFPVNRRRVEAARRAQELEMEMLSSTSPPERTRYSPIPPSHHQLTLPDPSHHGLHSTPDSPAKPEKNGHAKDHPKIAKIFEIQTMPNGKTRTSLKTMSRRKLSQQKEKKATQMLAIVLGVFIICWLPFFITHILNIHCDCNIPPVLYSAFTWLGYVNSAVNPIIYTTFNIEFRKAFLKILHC
Sequence of D(3) dopamine receptor (P35462 whole entry): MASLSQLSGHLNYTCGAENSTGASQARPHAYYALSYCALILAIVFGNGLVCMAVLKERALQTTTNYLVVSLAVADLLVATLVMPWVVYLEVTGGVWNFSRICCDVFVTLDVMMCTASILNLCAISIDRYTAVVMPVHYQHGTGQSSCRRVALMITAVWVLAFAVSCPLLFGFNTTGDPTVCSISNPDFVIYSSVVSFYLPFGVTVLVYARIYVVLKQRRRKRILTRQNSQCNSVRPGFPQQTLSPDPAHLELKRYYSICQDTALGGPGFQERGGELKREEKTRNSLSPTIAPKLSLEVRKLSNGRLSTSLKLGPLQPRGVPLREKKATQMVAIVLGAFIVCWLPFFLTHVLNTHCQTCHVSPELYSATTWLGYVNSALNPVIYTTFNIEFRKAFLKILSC
Sequence of Muscarinic acetylcholine receptor M3 (P20309 whole entry): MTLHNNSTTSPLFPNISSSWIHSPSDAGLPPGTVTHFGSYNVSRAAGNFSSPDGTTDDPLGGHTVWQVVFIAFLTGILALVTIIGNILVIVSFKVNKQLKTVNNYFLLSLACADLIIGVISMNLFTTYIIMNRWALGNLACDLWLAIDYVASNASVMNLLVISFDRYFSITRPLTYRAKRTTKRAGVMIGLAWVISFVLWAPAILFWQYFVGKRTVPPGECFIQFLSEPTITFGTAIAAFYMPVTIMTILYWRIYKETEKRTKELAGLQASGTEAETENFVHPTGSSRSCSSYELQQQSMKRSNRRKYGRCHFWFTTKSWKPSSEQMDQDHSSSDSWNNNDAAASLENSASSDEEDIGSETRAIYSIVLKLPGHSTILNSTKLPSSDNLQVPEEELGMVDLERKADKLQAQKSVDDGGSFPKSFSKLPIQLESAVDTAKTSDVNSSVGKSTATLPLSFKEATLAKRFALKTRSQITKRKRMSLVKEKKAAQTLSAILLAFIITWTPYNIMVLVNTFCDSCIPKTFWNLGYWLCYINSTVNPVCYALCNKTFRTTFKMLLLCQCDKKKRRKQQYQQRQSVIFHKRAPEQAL

Row | SMILES | IC50 [1] [nM] | IC50 [2] [nM] | Ratio Ki [3] | Ki [4] [nM] | Ki [5] [nM] | Ki [6] [nM] | Ki [7] [nM] | Ki [8] [nM] | Ki [9] [nM] | Ki [10] [nM] | Ki [11] [nM]
1 | O=C1CCc2ccccc2N1CCCN1CCC(CCCCCO)CC1 | 126 | 151 | 269 | 4.37 | 1170 | 676 |  |  |  |  | 
2 | COc1cccc(CCC2=NCCN2CCc2ccccc2)c1 |  |  | > 105 | 95.5 |  |  |  |  |  |  | 
3 | CC1CCN(CCCN2C(=O)CCc3ccccc32)CC1 |  |  | 17 | 257 | 4470 | 3720 | 24000 | 14100 | 11500 | 12000 | 9330
4 | O=C1CCc2ccccc2N1CCCN1CCC(CCc2ccccc2)CC1 |  |  | 135 | 2.14 | 288 | 407 | 759 | 501 | 204 | 263 | 200
5 | CCCCN1CCN(CCCN2C(=O)CCc3ccccc32)CC1 |  |  | 16 | 316 | 5130 | 3890 | 9120 | 7080 | 4170 | 2690 | 3160
6 | CCCC1CCN(CCCN2C(=O)CCc3ccccc32)CC1 |  |  | 174 | 5.25 | 912 | 1550 | 1950 | 2340 | 1910 | 2510 | 1660
7 | O=C1CCc2ccccc2N1CCCN1CCC(CCCCCCCO)CC1 |  |  | 9 | 100 | 933 | 955 |  |  |  |  | 
8 | O=C1CCc2ccccc2N1CCCN1CCC(c2ccccc2)CC1 |  |  | 234 | 1.95 | 457 | 708 | 2040 | 4680 | 2400 | 2880 | 1290
9 | CC(C)Oc1cccnc1N(C)C1CCN(Cc2ccc(I)cc2)CC1 |  |  | 1720 |  |  |  |  |  |  |  | 
10 | COc1ccc(Cl)cc1OC[C@@H]1CN(Cc2ccc(Cl)cc2)CCO1 |  |  | 48 |  |  |  |  |  |  |  | 
11 | O=C1CCc2ccccc2N1CCCN1CCN(CCc2ccccc2)CC1 |  |  | 200 | 28.8 | 5750 | 3980 | 7940 | 6610 | 1780 | 2290 | 5130
12 | CCCCCC1CCN(CCCN2C(=O)CCc3ccccc32)CC1 |  |  | 380 | 1.38 | 525 | 282 | 3550 | 1350 | 562 | 490 | 575
13 | O=C1CCc2ccccc2N1CCCN1CCC(CCCO)CC1 |  |  | 9 | 74.1 | 661 | 589 |  |  |  |  | 
